Where two headings read alike, the source gives them in different places.
Columns and labels:
5HT2A receptor = biological target: T1, 5HT2A receptor (Homo sapiens, UniProt P28223); assay: GPCRmax screen, agonist mode, 5HT2A; assay type: cell-based; conditions: 1 or 10 mM
T1 construct: host or cells: PathHunter cell lines

5HT2C receptor [1] = biological target: T2, 5HT2C receptor (Homo sapiens, UniProt P28335); assay: GPCRmax screen, agonist mode, 5HT2C; assay type: cell-based; conditions: 1 or 10 mM
T2 construct: host or cells: PathHunter cell lines
T2 sequence (P28335 33-458): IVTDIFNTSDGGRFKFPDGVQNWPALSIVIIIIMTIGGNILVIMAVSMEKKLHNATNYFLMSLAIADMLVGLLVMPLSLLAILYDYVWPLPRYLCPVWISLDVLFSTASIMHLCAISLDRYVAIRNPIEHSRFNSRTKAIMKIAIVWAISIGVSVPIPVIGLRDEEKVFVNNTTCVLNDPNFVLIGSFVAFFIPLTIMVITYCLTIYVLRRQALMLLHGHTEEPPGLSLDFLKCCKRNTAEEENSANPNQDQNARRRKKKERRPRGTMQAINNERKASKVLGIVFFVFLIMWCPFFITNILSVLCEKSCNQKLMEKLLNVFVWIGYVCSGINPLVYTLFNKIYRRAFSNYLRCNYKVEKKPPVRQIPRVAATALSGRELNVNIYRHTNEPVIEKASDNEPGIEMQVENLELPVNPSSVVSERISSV

5HT2C receptor [2] = biological target: T2, 5HT2C receptor; assay: GPCRmax screen, antagonist mode, 5HT2C; assay type: cell-based; conditions: 1 or 10 mM
[3] = biological target: T3, Human serotonin 5HT2B receptor (Homo sapiens, UniProt P41595); assay: Competitive radioligand binding to 5HT2B receptor membranes
T3 sequence (P41595 whole entry): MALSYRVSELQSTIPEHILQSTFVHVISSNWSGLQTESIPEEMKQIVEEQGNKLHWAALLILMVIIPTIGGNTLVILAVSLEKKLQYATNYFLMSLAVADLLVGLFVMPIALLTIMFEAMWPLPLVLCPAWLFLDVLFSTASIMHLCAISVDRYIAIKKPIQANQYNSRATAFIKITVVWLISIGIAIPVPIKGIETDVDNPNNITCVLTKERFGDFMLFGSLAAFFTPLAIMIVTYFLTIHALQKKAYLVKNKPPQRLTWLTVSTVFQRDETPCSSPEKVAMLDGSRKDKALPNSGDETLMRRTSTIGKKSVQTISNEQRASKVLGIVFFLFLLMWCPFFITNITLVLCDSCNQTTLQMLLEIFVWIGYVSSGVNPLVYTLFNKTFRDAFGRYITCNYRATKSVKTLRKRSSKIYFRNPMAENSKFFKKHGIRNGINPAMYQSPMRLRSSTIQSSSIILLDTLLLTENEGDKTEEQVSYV
Description: Human serotonin 5HT2B receptor membrane preparations were divided into aliquots. On the day of the assay, membranes were diluted at 1:200 in incubation buffer. […] To each well was added 150 μL membrane preparation, 50 μL test compound, non-specific compound, or buffer alone, as well as 50 μL radioligand. The plate was incubated at 35° C. for 90 minutes with gentle agitation. […] For each concentration of drug, non-specific binding was subtracted from total binding to give specific binding. […] Ki was subsequently calculated using the ChengPrusoff equation.

[4] = test system: gene expression in amygdala, frontal cortex, hippocampus; assay: RNA-sequencing of rat brain areas after a single dose; assay type: in vivo
[5] = test system: myelin basic protein (MBP); assay: Myelin basic protein immunohistochemistry in amygdala; assay type: in vivo, rat; conditions: 10 mg/kg IP, 24 h
Description: Immunohistochemistry: The in-life portion of the study was conducted at WuXi Apptec (Cranbury, NJ). Sectioning and staining of brains took place at Neuroscience Associates (NSA, Knoxville, TN). […] Brains were post-fixed in PFA before shipment to NSA for processing and staining. Hemisected brains were mounted, sectioned and stained using standard protocols with myelin-basic protein primary antibody (MBP SMI-99, 1:5000, Biolegend, San Diego, CA) and anti-mouse biotinylated secondary antibody (BA-2001, Vector Laboratories, Newark, CA). Slides were imaged using a Huron Digital Pathology TissueScope LE120 whole slide scanning system. 20× objective was used with a 0.4 μm/pixel resolution.

[6] = cited from earlier work
[7] = 7.5 mg/kg 30 minutes prior to extinction training (Young 2015); cited from earlier work
[8] = biological target: T3, Human serotonin 5HT2B receptor; conditions: read-out: Ki (reported); reported values; cited from earlier work
[9] = depending on the animal model and dosing conditions; cited from earlier work
[10] = 13 of 77 deaths, meta-analysis; cited from earlier work
SERT [11] = biological target: T4, SERT (Rattus norvegicus, UniProt P31652); assay: [3H]5-HT release from rat brain synaptosomes; assay type: biochemical; design: from tissue; synaptosomes for uptake and release
T4 sequence (P31652 whole entry, the tested form may be a part): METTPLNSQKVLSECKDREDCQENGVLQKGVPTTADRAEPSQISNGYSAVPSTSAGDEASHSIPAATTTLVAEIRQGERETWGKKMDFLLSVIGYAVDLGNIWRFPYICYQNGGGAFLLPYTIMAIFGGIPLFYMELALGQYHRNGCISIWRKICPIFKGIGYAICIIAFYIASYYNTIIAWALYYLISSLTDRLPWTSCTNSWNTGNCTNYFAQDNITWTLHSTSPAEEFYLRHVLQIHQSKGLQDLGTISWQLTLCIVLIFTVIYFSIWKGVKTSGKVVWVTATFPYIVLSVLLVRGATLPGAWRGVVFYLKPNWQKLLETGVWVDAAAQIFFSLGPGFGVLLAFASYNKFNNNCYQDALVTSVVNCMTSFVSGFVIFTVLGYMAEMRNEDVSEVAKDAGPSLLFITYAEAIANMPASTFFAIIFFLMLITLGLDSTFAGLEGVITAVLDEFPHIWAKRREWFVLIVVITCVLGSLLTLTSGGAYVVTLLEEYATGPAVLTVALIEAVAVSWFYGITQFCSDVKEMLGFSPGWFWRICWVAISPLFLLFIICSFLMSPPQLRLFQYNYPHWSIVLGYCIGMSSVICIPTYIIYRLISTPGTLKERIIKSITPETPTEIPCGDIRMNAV
Description: (§1) Test compounds and synaptosomes were prepared as described for uptake inhibition assays. Synaptosomes treated with [^3H]5-HT, [^3H]DA or [^3H]NE were loaded onto filter chambers containing GF/C filters and placed in a superfusion system. Oxygenated Krebs buffer was perfused through the chambers at a rate of 1.5 mL/minute at 35° C. using either an 8-channel or a 12-channel peristaltic pump. Trapped air bubbles were removed from the filters prior to collecting fractions to ensure an even flow over the synaptosomal bed. After a superfusion period of 45 minutes, 2 basal fractions were collected followed by 6 fractions following the addition of the test drug. […] Scintillation cocktail was added, and the filters counted to determine residual radioactivity. Drug-evoked release of neurotransmitter was calculated by subtracting the average of the two basal fractions (collected prior to the drug addition), from the four fractions collected in the presence of drug. The drug-evoked release was then expressed as a percentage of the basal release. Potassium-evoked release was calculated by subtracting the average of two fractions collected prior to the addition of high KCl buffer from that in the two fractions following addition of high KCl buffer. Potassium-stimulated release was calculated as a percentage of basal release. […]

NET [12] = biological target: T5, NET (Rattus norvegicus, UniProt Q63380); assay: [3H]NE release from rat brain synaptosomes; assay type: biochemical; design: from tissue; synaptosomes for uptake and release
T5 sequence (Q63380 1-617): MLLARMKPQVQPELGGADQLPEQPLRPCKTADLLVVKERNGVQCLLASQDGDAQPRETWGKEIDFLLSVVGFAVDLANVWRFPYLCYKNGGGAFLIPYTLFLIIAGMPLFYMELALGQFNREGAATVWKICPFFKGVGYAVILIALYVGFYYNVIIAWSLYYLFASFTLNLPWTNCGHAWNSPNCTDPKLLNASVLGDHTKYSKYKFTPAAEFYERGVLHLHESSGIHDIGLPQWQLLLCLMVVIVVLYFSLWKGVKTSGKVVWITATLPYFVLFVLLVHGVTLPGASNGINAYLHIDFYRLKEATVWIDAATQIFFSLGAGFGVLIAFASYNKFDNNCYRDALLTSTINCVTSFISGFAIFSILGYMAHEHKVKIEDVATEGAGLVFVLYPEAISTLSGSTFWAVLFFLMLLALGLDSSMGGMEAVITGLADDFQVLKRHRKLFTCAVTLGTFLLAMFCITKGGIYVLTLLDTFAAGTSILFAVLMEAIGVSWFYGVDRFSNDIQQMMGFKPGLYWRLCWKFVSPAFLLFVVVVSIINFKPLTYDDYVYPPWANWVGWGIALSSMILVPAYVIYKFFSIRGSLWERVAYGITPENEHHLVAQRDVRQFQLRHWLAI
Description: as §1

DAT [13] = biological target: T6, DAT (Rattus norvegicus, UniProt P23977); assay: [3H]DA release from rat brain synaptosomes; assay type: biochemical; design: from tissue; synaptosomes for uptake and release
T6 sequence (P23977 whole entry): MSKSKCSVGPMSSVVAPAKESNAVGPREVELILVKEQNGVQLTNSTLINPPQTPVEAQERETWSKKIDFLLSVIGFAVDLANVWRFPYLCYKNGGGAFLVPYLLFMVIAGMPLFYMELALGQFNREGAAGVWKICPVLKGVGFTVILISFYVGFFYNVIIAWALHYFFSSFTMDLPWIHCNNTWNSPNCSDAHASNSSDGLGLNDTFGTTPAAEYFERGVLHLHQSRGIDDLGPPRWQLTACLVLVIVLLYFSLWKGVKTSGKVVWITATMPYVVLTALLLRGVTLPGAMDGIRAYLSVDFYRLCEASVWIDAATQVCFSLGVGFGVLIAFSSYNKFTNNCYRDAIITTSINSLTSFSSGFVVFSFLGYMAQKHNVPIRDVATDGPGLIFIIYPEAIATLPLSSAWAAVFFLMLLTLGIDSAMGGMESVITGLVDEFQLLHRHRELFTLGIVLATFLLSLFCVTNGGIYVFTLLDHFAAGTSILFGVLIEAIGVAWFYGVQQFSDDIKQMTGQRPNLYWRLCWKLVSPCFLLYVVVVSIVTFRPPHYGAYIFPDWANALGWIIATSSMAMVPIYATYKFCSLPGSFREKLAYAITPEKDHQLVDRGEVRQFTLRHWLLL
Description: as §1

NET [14] = biological target: T5, NET; assay: [3H]NE uptake inhibition in rat brain synaptosomes
DAT [15] = biological target: T6, DAT; assay: [3H]DA uptake inhibition in rat brain synaptosomes
SERT [16] = biological target: T4, SERT; assay: [3H]5-HT uptake inhibition in rat brain synaptosomes

T1 sequence (P28223 whole entry): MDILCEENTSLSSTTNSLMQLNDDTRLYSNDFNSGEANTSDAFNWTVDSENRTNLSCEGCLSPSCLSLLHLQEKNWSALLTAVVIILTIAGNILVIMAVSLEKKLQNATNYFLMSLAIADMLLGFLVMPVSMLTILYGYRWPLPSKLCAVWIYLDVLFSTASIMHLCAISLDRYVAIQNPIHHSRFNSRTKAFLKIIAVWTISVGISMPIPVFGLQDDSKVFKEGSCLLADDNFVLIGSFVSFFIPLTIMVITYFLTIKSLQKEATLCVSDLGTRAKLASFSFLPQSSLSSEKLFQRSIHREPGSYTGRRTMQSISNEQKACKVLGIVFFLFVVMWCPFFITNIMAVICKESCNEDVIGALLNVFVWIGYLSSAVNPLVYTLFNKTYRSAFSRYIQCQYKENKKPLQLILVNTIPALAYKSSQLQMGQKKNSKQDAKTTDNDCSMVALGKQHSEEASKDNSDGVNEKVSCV

Q: With CNC(C)Cc1ccc2c(c1)OCO2 (racemic) [MDMA, 3,4-Methylenedioxymethamphetamine] as the compound, how does the Agonist % activity (5HT2A receptor) read?
A: 27.5%

Q: What about the Agonist % activity (5HT2C receptor [1]) of the same compound?
A: 28.0%

Q: What about the Antagonist % inhibition (5HT2C receptor [2]) of the same compound?
A: 52.2%

Q: What about the “Times greater affinity for the 5HT2B receptor compared with methylone” value [3] of the same compound?
A: 7.5 times

Q: And the “Additional genes significantly regulated by MDMA only” value ([4]; amygdala)?
A: 1313 genes

Q: What about the “Genes downregulated by MDMA only” value ([4]; amygdala) of the same compound?
A: 774 genes

Q: And the “Genes regulated by MDMA that are also regulated by methylone” value ([4]; amygdala)?
A: 7%

Q: And the “Genes upregulated by MDMA only” value ([4]; amygdala)?
A: 539 genes

Q: What about the “Genes regulated by both treatments” value ([4]; frontal cortex) of the same compound?
A: 154 genes

Q: What about the “More genes regulated than methylone” value ([4]; frontal cortex) of the same compound?
A: ~72%

Q: What about the Genes significantly regulated ([4]; frontal cortex, 10 mg/kg IP (Example 27)) of the same compound?
A: 825 genes

Q: What about the “MBP in basolateral and central nuclei of the amygdala vs. vehicle” value [5] of the same compound?
A: significant reduction in MBP

Q: And the “Reduction in immobility in the FST” value ([6]; 5 mg/kg, Flinders Sensitive Line rats)?
A: 45%

Q: What about the “Reduction in immobility in the FST” value ([6]; 5 mg/kg, Sprague Dawley rats (Majumder 2011)) of the same compound?
A: 45%

Q: What about the “Reduction in immobility in the FST” value ([6]; 10 mg/kg, Flinders Sensitive Line rats) of the same compound?
A: 93%

Q: And the “Reduction in immobility in the FST” value ([6]; 10 mg/kg, Sprague Dawley rats (Majumder 2011))?
A: 78%

Q: And the “Reduced freezing vs. saline (extinction recall)” value [7]?
A: 35%

Q: And the Ki [8]?
A: 500 nM

Q: What about the half-life [9] of the same compound?
A: 5 to 7 h

Q: And the “Blood concentrations in deaths attributable to MDMA alone” value [10]?
A: 478 to 53900 ng/mL

Q: What about the EC50 (SERT [11]) of the same compound?
A: 160 nM

Q: What about the EC50 (NET [12]) of the same compound?
A: 490 nM

Q: What about the EC50 (DAT [13]) of the same compound?
A: 1420 nM

Q: What about the IC50 (NET [14]) of the same compound?
A: 120 nM

Q: What about the IC50 (DAT [15]) of the same compound?
A: 2500 nM

Q: What about the IC50 (SERT [16]) of the same compound?
A: 1800 nM
